In ChEMBL document CHEMBL1201862, “PubChem BioAssay data set” (2004):
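Compound exposure: 48 hours, 5 concentrations, 96-well plates. GI50 marks 50% less growth.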 Active and inactive are the calls of the source. Rule as the data show it: active = GI50 up to about 1.1 µM and inactive = higher.

Key:
Assay in all cases: NCI-60 cell line screen, 48 h
[1] = test system: HCT-116
[2] = test system: HOP-62
[3] = test system: HT-29
[4] = test system: Hs-578T
[5] = test system: IGROV-1
[6] = test system: MDA-MB-435
[7] = test system: MOLT-4
[8] = test system: OVCAR-4
[9] = test system: OVCAR-5
[10] = test system: RPMI-8226
[11] = test system: RXF 393
[12] = test system: SK-MEL-28
[13] = test system: SK-MEL-2
[14] = test system: SK-MEL-5
[15] = test system: SNB-75
[16] = test system: SR
[17] = test system: TK-10
[18] = test system: U-251
[19] = test system: UACC-257
[20] = test system: UO-31

Measured: GI50

CCCC#CC(O)(C(=O)OC1CCN(C)CC1)C1CCCCC1 (stereo not given)
inactive: [1] > 100 µM | [2] 52 µM | [3] 55.2 µM | [4] 14.1 µM | [5] > 100 µM | [6] > 100 µM | [7] 91.6 µM | [8] > 100 µM | [9] > 100 µM | [10] > 100 µM | [11] > 100 µM | [12] > 100 µM | [13] > 100 µM | [14] 38.9 µM | [15] 57 µM | [16] > 100 µM | [17] > 100 µM | [18] > 100 µM | [19] 46.6 µM | [20] 29 µM

CC1(CC(=O)O)OC2CCCCCC2O1.NCc1ccccc1 (stereo not given)
inactive: [1] 74.8 µM | [2] > 100 µM | [3] 64.1 µM | [4] > 100 µM | [5] > 100 µM | [6] > 100 µM | [7] > 100 µM | [8] > 100 µM | [9] > 100 µM | [10] 31.9 µM | [11] > 100 µM | [12] > 100 µM | [13] > 100 µM | [14] 88.1 µM | [15] 99.3 µM | [16] > 100 µM | [17] > 100 µM | [18] 91.4 µM | [19] 53.5 µM | [20] > 100 µM

Cc1cc2c(cc1C)C(=O)/C(=C/c1ccccc1C(=O)O)C2
inactive: [1] 37.9 µM | [2] 42.4 µM | [3] 39.1 µM | [4] 34 µM | [5] > 100 µM | [6] 34.8 µM | [7] 25.4 µM | [8] 35 µM | [9] 23.6 µM | [10] 24.3 µM | [11] > 100 µM | [12] 64.4 µM | [13] 35.4 µM | [14] 47.6 µM | [15] 30 µM | [16] 21.2 µM | [17] > 100 µM | [18] 22.9 µM | [19] > 100 µM | [20] 50.6 µM
